Values joined by “and” are separate entries in the source; they are usually repeats but may differ in a detail not shown here. Equal values may be shown once. Read-outs that look alike come from different tables or passages of the source.
How the values were obtained:
[1] = Plasma pharmacokinetics of Ge in mice after i.v., i.n. and i.g. administration of Gardenia-Borneol co-compound; format: in vivo; settings: for bioavailability / Cmax / AUC(0-t) / MRT last / Tmax: mouse; for bioavailability: read-out: F (absolute bioavailability); for Cmax / AUC(0-t) / MRT last / Tmax: 18 mg/kg gardenia extract + 18 mg/kg borneol; for AUC(0-t): read-out: AUC0–120 (converted); for MRT last: read-out: MRT0–120 (converted)
Method: Non-compartmental analysis of pharmacokinetic data was performed by Kinetica 4.4 software. The absolute bioavailability was F, F = AUCblood (i.n./i.g.)/AUCblood (i.v.) × 100%.
(§1) The separation was carried out using a Diamonsil C18 column ([…], i.d., 5.0 μm) under the following chromatographic conditions: column temperature, 25 °C; sample injection volume, 20 μL; flow rate, 1.0 mL/min; detection wavelength, 238 nm; and mobile phase, acetonitrile-water(14:86).
(§2) 1% (v/v) of Tween-80 and 20% (v/v) ethanol were dissolved in physiological saline and used as the solvent for drugs. 1.2 g of borneol fine powder and 1.2 g gardenia extract were dissolved into 10 mL solvent, named as co-compound nasal drops. Dilute 0.3 mL of nasal drops precisely with 1% Tween 80-normal saline solution into 10 mL, filtrate by 0.22 μm filter, named as co-compound injection. Dilute 0.3 mL of nasal drops precisely with 1% Tween 80-normal saline solution into 10 mL, named as co-compound intragastric solution.
(§3) 120 mice were divided into 3 groups (A, B, C), equally and randomly, 40 for each group. Group A was injected 0.1 mL co-compound injection via the tail vein. Group B was treated 3 μL nasal drops with a soft PE polyethylene tube after anesthesia by ether steam. Group C was treated 0.1 mL co-compound intragastric solution. The doses chosen for the mice were 18mg/kg·d (borneol and gardenia extract, respectively), 3 times based on the doses for human beings. The blood samples were collected into heparinized tubes by pricking the eyeball. Then, mice were killed by decollation. The corresponding brains were also collected at 1, 3, 5, 10, 30, 60, 90 and 120 min after drug administration. The brains were accurately weighed, and plasma was obtained after centrifugation. The sample processing and determination were immediately made when plasma and brain tissue were obtained.
Plasma sample (100 μL) was placed into a centrifuge tube. To precipitate proteins in the sample, 300 μL acetonitrile was added and vortexed for 1 min. After centrifugation at 10,000 rpm for 10 min, supernatant was removed and evaporated under air stream in a water bath at 60 °C. The residue was dissolved in 100 μL of methanol and vortexed for 30 s, centrifuged at 10,000 rpm for 10 min. 20 μL of supernatant was injected into the HPLC system for analysis.

[2] = Brain pharmacokinetics and brain targeting of Ge in mice after i.v., i.n. and i.g. administration of Gardenia-Borneol co-compound; format: in vivo; settings: for Kp / MRT last / Cmax / Tmax / AUC(0-t): mouse; for Kp: read-out: Te (brain/blood drug ratio); for MRT last / Cmax / Tmax / AUC0–120 / AUC(0-t): brain; for Cmax: 18 mg/kg gardenia extract + 18 mg/kg borneol; for AUC(0-t): read-out: AUC0–120 (converted)
Method: The relative brain targeted coefficient was Re, Re = AUCbrain (i.n./i.g.)/AUCbrain (i.v.) × 100%. The brain/blood drug ratio was Te, Te = AUCbrain/AUCblood × 100%. So the drug target index was DTI, DTI = Te(i.n. /i.g.)/Te(i.v). […] AUC0–120 was 37270.5 ± 4160.6, 32413.6 ± 4573.9 and 6440.1 ± 863.7 […] for i.v., i.n. and i.g., respectively.
as §1, §2, §3
The brains were washed by normal saline to remove excess surface blood and were dried by filter paper. The bloodless brains were homogenized after mixing with normal saline solution 1.5 times to the weight. After centrifugation at 12,000 rpm for 5 min, 600 μL methanol (the brain homogenate was 300 μL) was added in the supernatant to precipitate proteins in the sample. After being vortexed for 1 min, the solution was centrifuged at 12,000 rpm for 5 min. Then, supernatant was removed and evaporated under air stream in a water bath at 60 °C. The residue was dissolved in 100 μL of methanol and vortexed for 30 s, centrifuged at 12,000 rpm for 5 min. 20 μL aliquot supernatant was injected into the HPLC system for analysis.

[3] = octanol/water system; cited from earlier work
[4] = cited from earlier work
[5] = inhaled or intranasal, plasma, i.n.
[6] = ICR, in vivo, po, 18 mg/kg, i.g.
[7] = ICR, inhaled or intranasal, 18 mg/kg, i.n.

COC(=O)C1=CO[C@@H](O[C@@H]2O[C@H](CO)[C@@H](O)[C@H](O)[C@H]2O)[C@@H]2C(CO)=CC[C@H]12 [Ge, geniposide]
Cmax in plasma relative to i.v. ([1]; i.g. vs i.v.): 1/20
Cmax in plasma relative to i.v. ([1]; i.n. vs i.v.): up to 1/2
bioavailability ([1]; in vivo, 18 mg/kg, i.g. vs i.v.): 28.8%
bioavailability ([1]; in vivo, 18 mg/kg, i.v. (reference), F = AUCblood(i.n./i.g.)/AUCblood(i.v.) × 100%): 100%
Cmax ([1]; in vivo, iv, plasma, i.v.): 42400 ± 6270 ng/mL
AUC(0-t) ([1]; in vivo, iv, plasma, i.v.): 5410 ng·h/mL
MRT last ([1]; in vivo, iv, plasma, i.v.): 15 min
Tmax ([1]; in vivo, po, 18 mg/kg, plasma, i.g.): ~30 min
Cmax ([1]; in vivo, po, plasma, i.g.): 1910 ± 327 ng/mL
AUC(0-t) ([1]; in vivo, po, plasma, i.g.): 1560 ng·h/mL
MRT last ([1]; in vivo, po, plasma, i.g.): 42 min
Cmax [1, 5]: 21900 ± 5400 ng/mL
Tmax [1, 5]: 1 min
AUC(0-t) [1, 5]: 4620 ng·h/mL
MRT last [1, 5]: 31.7 min
bioavailability ([1]; plasma, other: i.n. (nasal drops), 18 mg/kg, i.n. vs i.v.): 85.4%
Kp ([2]; ICR, in vivo, i.g.): 0.0689
Kp ([2]; ICR, in vivo, i.n.): 0.117
MRT last ([2]; ICR, in vivo, iv, 18 mg/kg): 48.3 min
Kp ([2]; ICR, in vivo, iv, Te = AUCbrain/AUCblood × 100%): 0.115
Cmax ([2]; ICR, in vivo, iv, i.v.): 1480 ± 145 ng/g
MRT last [2, 6]: 60 min
Tmax [2, 6]: 1 h
Cmax ([2]; ICR, in vivo, po, i.g.): 76.2 ± 22.1 ng/g
MRT last [2, 7]: 51.2 min
Tmax [2, 7]: 0.05 h
Cmax ([2]; ICR, inhaled or intranasal, i.n.): 747 ± 175 ng/g
AUC0–120 ([2]; i.g.): 6440.1 ± 863.7 ng·min/g
AUC0–120 ([2]; i.n.): 32413.6 ± 4573.9 ng·min/g
AUC0–120 ([2]; i.v.): 37270.5 ± 4160.6 ng·min/g
Re (relative brain targeted coefficient) ([2]; i.g. vs i.v.): 17.28% and 17.28 ^** %
brain peak concentration compared to the i.v. group ([2]; i.g. vs i.v.): 1/20
DTI (drug target index) ([2]; i.n. vs i.v.): 1.02
Re (relative brain targeted coefficient) ([2]; i.n. vs i.v.): 86.97%
brain peak concentration compared to the i.v. group ([2]; i.n. vs i.v.): up to 1/2
DTI (drug target index) ([2]; i.v. (reference), DTI = Te(i.n./i.g.)/Te(i.v.)): 1
Re (relative brain targeted coefficient) ([2]; i.v. (reference), Re = AUCbrain(i.n./i.g.)/AUCbrain(i.v.) × 100%): 100%
AUC(0-t) ([2]; in vivo, inhaled or intranasal, 18 mg/kg, i.n.): 540 µg·h/mL
AUC(0-t) ([2]; in vivo, iv, 18 mg/kg, i.v.): 621 µg·h/mL
AUC(0-t) ([2]; in vivo, po, 18 mg/kg, i.g.): 107 µg·h/mL
Tmax ([2]; in vivo, po, i.g.): ~1 h
log p [3]: −0.97
intranasal absorption coefficient (K) ([4]; Ge alone): 0.061 h⁻¹
intranasal absorption coefficient (K) ([4]; Ge in Gardenia-Borneol co-compound): 0.11 h⁻¹
